target: T1, TNKS1 (Homo sapiens, UniProt O95271); test: TNKS1 Assay B (auto-parsylation, [3H]-NAD+ SPA); type: biochemical; settings: 6 nM TNKS1, auto-parsylation, over night at room temperature
T1 construct: purchased BPS Bioscience, San Diego, USA 80579 (TNKS1 Histone Ribosylation Assay Kit)
T1 sequence (O95271 1-1327): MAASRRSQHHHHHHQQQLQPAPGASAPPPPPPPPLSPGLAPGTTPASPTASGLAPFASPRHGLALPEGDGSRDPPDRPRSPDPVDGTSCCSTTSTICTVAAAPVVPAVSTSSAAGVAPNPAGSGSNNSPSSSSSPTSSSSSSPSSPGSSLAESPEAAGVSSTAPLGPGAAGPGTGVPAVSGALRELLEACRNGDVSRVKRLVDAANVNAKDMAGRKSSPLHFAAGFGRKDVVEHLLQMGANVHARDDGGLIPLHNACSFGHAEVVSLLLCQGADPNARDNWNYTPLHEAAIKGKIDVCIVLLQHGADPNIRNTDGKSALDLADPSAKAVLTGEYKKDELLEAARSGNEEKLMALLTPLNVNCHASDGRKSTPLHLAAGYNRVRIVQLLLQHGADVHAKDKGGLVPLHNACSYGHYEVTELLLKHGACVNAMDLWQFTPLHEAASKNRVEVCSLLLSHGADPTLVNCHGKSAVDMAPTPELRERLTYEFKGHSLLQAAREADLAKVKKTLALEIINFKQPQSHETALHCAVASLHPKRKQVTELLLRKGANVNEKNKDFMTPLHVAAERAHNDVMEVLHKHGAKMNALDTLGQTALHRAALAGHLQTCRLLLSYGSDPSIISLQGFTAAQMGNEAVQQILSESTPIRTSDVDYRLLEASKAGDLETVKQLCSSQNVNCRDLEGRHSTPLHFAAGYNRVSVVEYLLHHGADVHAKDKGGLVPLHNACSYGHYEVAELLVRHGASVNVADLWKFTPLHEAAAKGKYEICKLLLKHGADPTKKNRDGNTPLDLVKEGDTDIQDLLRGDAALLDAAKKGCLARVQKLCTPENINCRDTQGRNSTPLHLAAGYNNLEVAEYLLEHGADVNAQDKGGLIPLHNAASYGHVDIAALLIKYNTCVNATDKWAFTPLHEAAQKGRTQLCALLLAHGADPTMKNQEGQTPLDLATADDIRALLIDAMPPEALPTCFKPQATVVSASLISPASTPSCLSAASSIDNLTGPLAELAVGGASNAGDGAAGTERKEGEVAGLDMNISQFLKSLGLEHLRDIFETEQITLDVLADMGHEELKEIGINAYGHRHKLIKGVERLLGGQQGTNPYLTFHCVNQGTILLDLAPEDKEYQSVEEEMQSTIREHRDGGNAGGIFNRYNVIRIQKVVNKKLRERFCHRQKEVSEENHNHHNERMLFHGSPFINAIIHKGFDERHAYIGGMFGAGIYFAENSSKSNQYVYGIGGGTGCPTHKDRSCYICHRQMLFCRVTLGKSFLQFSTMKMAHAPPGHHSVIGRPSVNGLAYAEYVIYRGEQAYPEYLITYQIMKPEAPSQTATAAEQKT

Row | SMILES | IC50 [µM]
1 | CNC(=O)c1[nH]cnc1C(=O)NC12CCC(C(=O)Nc3c(F)cc(F)cc3Cl)(CC1)CC2 [Example 116, N^4-{4-[(2-chloro-4,6-difluorophenyl)carbamoyl]bicyclo[2.2.2]oct-1-yl}-N^5-methyl-1H-imidazole-4,5-dicarboxamide] | 0.58
2 | O=C(NC12CCC(C(=O)Nc3ccc(F)cc3Cl)(CC1)CC2)c1cnn2cccnc12 [Example 117, N-{4-[(2-chloro-4-fluorophenyl)carbamoyl]bicyclo[2.2.2]oct-1-yl}pyrazolo[1,5-a]pyrimidine-3-carboxamide] | 0.34
3 | Cc1cc(NC(=O)C23CCC(NC(=O)c4cnn5cccnc45)(CC2)CC3)c(Cl)cc1F [Example 118, N-{4-[(2-chloro-4-fluoro-5-methylphenyl)carbamoyl]bicyclo[2.2.2]oct-1-yl}pyrazolo[1,5-a]pyrimidine-3-carboxamide] | 0.089
4 | O=C(NC12CCC(C(=O)Nc3c(F)cc(F)cc3Cl)(CC1)CC2)c1cnn2cccnc12 [Example 119, N-{4-[(2-chloro-4,6-difluorophenyl)carbamoyl]bicyclo[2.2.2]oct-1-yl}pyrazolo[1,5-a]pyrimidine-3-carboxamide] | 0.56
5 | O=C(NC12CCC(C(=O)Nc3cnccc3Cl)(CC1)CC2)c1cnn2cccnc12 [Example 120, N-{4-[(4-chloropyridin-3-yl)carbamoyl]bicyclo[2.2.2]oct-1-yl}pyrazolo[1,5-a]pyrimidine-3-carboxamide] | 0.21
6 | O=C(NC12CCC(C(=O)Nc3ccc(F)cc3Cl)(CC1)CC2)c1cnc2cccnn12 [Example 121, N-{4-[(2-chloro-4-fluorophenyl)carbamoyl]bicyclo[2.2.2]oct-1-yl}imidazo[1,2-b]pyridazine-3-carboxamide] | 0.4
7 | Cc1cc(NC(=O)C23CCC(NC(=O)c4cnc5cccnn45)(CC2)CC3)c(Cl)cc1F [Example 122, N-{4-[(2-chloro-4-fluoro-5-methylphenyl)carbamoyl]bicyclo[2.2.2]oct-1-yl}imidazo[1,2-b]pyridazine-3-carboxamide] | 0.24
8 | O=C(NC12CCC(C(=O)Nc3c(F)cc(F)cc3Cl)(CC1)CC2)c1cnc2cccnn12 [Example 123, N-{4-[(2-chloro-4,6-difluorophenyl)carbamoyl]bicyclo[2.2.2]oct-1-yl}imidazo[1,2-b]pyridazine-3-carboxamide] | 1
9 | O=C(NC12CCC(C(=O)Nc3cnccc3Cl)(CC1)CC2)c1cnc2cccnn12 [Example 124, N-{4-[(4-chloropyridin-3-yl)carbamoyl]bicyclo[2.2.2]oct-1-yl}imidazo[1,2-b]pyridazine-3-carboxamide] | 0.23
10 | Cc1cc(C)n2ncc(C(=O)NC34CCC(C(=O)Nc5ccc(F)cc5Cl)(CC3)CC4)c2n1 [Example 125, N-{4-[(2-chloro-4-fluorophenyl)carbamoyl]bicyclo[2.2.2]oct-1-yl}-5,7-dimethylpyrazolo[1,5-a]pyrimidine-3-carboxamide] | 0.12
11 | Cc1cc(C)n2ncc(C(=O)NC34CCC(C(=O)Nc5cc(C)c(F)cc5Cl)(CC3)CC4)c2n1 [Example 126, N-{4-[(2-chloro-4-fluoro-5-methylphenyl)carbamoyl]bicyclo[2.2.2]oct-1-yl}-5,7-dimethylpyrazolo[1,5-a]pyrimidine-3-carboxamide] | 0.082
12 | Cc1cc(C)n2ncc(C(=O)NC34CCC(C(=O)Nc5c(F)cc(F)cc5Cl)(CC3)CC4)c2n1 [Example 127, N-{4-[(2-chloro-4,6-difluorophenyl)carbamoyl]bicyclo[2.2.2]oct-1-yl}-5,7-dimethylpyrazolo[1,5-a]pyrimidine-3-carboxamide] | 0.32
13 | Cc1cc(C)n2ncc(C(=O)NC34CCC(C(=O)Nc5cnccc5Cl)(CC3)CC4)c2n1 [Example 128, N-{4-[(4-chloropyridin-3-yl)carbamoyl]bicyclo[2.2.2]oct-1-yl}-5,7-dimethylpyrazolo[1,5-a]pyrimidine-3-carboxamide] | 0.088
14 | O=C(NCC1CCCO1)c1nc[nH]c1C(=O)N[C@H]1CC[C@H](C(=O)Nc2cc(F)ccc2Cl)CC1 (stereo partly drawn) [Example 129, N^5-{trans-4-[(2-chloro-5-fluorophenyl)carbamoyl]cyclohexyl}-N^4-(tetrahydrofuran-2-ylmethyl)-1H-imidazole-4,5-dicarboxamide] | 0.045
15 | O=C(N[C@H]1CC[C@H](C(=O)Nc2cc(F)c(F)cc2Cl)CC1)c1cnn2cccnc12 [Example 130, N-{trans-4-[(2-chloro-4,5-difluorophenyl)carbamoyl]cyclohexyl}pyrazolo[1,5-a]pyrimidine-3-carboxamide] | 0.034
16 | O=C(N[C@H]1CC[C@H](C(=O)Nc2cc(F)c(F)cc2Cl)CC1)c1cnc2cccnn12 [Example 132, N-{trans-4-[(2-chloro-4,5-difluorophenyl)carbamoyl]cyclohexyl}imidazo[1,2-b]pyridazine-3-carboxamide] | 0.064
17 | O=C(N[C@H]1CC[C@H](C(=O)Nc2c(F)cc(F)cc2Cl)CC1)c1cnc2cccnn12 [Example 133, N-{trans-4-[(2-chloro-4,6-difluorophenyl)carbamoyl]cyclohexyl}imidazo[1,2-b]pyridazine-3-carboxamide] | 0.14
18 | Cc1cc(C)n2ncc(C(=O)N[C@H]3CC[C@H](C(=O)Nc4cc(F)c(F)cc4Cl)CC3)c2n1 [Example 134, N-{trans-4-[(2-chloro-4,5-difluorophenyl)carbamoyl]cyclohexyl}-5,7-dimethylpyrazolo[1,5-a]pyrimidine-3-carboxamide] | 0.074
19 | Cc1cc(C)n2ncc(C(=O)N[C@H]3CC[C@H](C(=O)Nc4c(F)cc(F)cc4Cl)CC3)c2n1 [Example 135, N-{trans-4-[(2-chloro-4,6-difluorophenyl)carbamoyl]cyclohexyl}-5,7-dimethylpyrazolo[1,5-a]pyrimidine-3-carboxamide] | 0.048
20 | O=C(N[C@H]1CC[C@@]2(CCN(c3ccc(F)cc3Cl)C2=O)CC1)c1cnn2cccnc12 [Example 136, N-[(trans)-2-(2-chloro-4-fluorophenyl)-1-oxo-2-azaspiro[4.5]dec-8-yl]pyrazolo[1,5-a]pyrimidine-3-carboxamide] | 0.013
21 | Cc1cnc2c(C(=O)N[C@H]3CC[C@@]4(CCN(c5ccc(F)cc5Cl)C4=O)CC3)cnn2c1 [Example 137, N-[(trans)-2-(2-chloro-4-fluorophenyl)-1-oxo-2-azaspiro[4.5]dec-8-yl]-6-methylpyrazolo[1,5-a]pyrimidine-3-carboxamide] | 0.011
22 | O=C(N[C@H]1CC[C@@]2(CCN(c3ccc(F)cc3Cl)C2=O)CC1)c1cnc2cccnn12 [Example 138, N-[(trans)-2-(2-chloro-4-fluorophenyl)-1-oxo-2-azaspiro[4.5]dec-8-yl]imidazo[1,2-b]pyridazine-3-carboxamide] | 0.022
23 | Cc1cc(C)n2ncc(C(=O)N[C@H]3CC[C@@]4(CCN(c5ccc(F)cc5Cl)C4=O)CC3)c2n1 [Example 139, N-[(trans)-2-(2-chloro-4-fluorophenyl)-1-oxo-2-azaspiro[4.5]dec-8-yl]-5,7-dimethylpyrazolo[1,5-a]pyrimidine-3-carboxamide] | 0.011
24 | CNC(=O)c1[nH]cnc1C(=O)N[C@H]1CC[C@@]2(CCN(c3ccc(F)cc3Cl)C2=O)CC1 [Example 140, N^4-[(trans)-2-(2-chloro-4-fluorophenyl)-1-oxo-2-azaspiro[4.5]dec-8-yl]-N^5-methyl-1H-imidazole-4,5-dicarboxamide] | 0.012
25 | CCNC(=O)c1[nH]cnc1C(=O)N[C@H]1CC[C@@]2(CCN(c3ccc(F)cc3Cl)C2=O)CC1 [Example 141, N^4-[(trans)-2-(2-chloro-4-fluorophenyl)-1-oxo-2-azaspiro[4.5]dec-8-yl]-N^5-ethyl-1H-imidazole-4,5-dicarboxamide] | 0.011
26 | CNC(=O)c1nc[nH]c1C(=O)N[C@H]1CC[C@H](C(=O)Nc2cc(C(F)(F)F)ccc2Cl)CC1 [Example 142, N^5-(trans-4-{[2-chloro-5-(trifluoromethyl)phenyl]carbamoyl}cyclohexyl)-N^4-methyl-1H-imidazole-4,5-dicarboxamide] | 0.093

From patent publication US20180148418A1, “AMIDO-SUBSTITUTED CYCLOHEXANE DERIVATIVES” (Bayer Pharma Aktiengesellschaft, priority 2015, published 2018)
